# Test results taken from paper PMC9405123, “Design, Synthesis and Mechanistic Studies of Novel Isatin-Pyrazole Hydrazone Conjugates as Selective and Potent Bacterial MetAP Inhibitors” (Antibiotics, 2022).
# Columns and labels:
# [1] = target: T1, MtMetAP1c (Mycobacterium tuberculosis, UniProt P9WK19); experiment: MetAP enzyme inhibition, Morrison Ki (Met-AMC fluorescence); format: biochemical, M. tuberculosis; conditions: Morrison Ki method
# T1 construct: made in house
# Procedure: MetAP appears to serve a vital role in the co- or post-translational modification of proteins, making it essential for bacterial cell metabolism and survival. In this study, all enzymes, which were used for this study, including MtMetAP1c (M. tuberculosis), EfMetAP1a (E. faecalis), SpMetAP1a (S. pneumoniae) and HsMetAP1b (H. sapiens) enzymes, were expressed and purified in our lab as previously reported. All compounds prepared 10 mM stocks in DMSO and were used for enzyme inhibition studies. The concentration of each enzyme is adjusted such that they have similar reaction rates (HsMetAp1b, 1 µM; SpMetAP1a, 5 µM; EfMetAP1a, 1 µM; MtMetAP1c, 1 µM;) as reported earlier. All assays were performed in […] reaction containing 50 mM HEPES (pH 7.5 for SpMetAP1a and HsMetAP1b; 8.0 for EfMetAP1a, MtMetAP1c, […]), 150 mM NaCl, and CoCl2 (three molar equivalents of corresponding enzymes). The reaction was started by adding 50 μM L-Methionine 7-amido-4-methyl coumarin (Met-AMC) and continuously monitoring the fluorescence of released 7-amino-4-methyl coumarin (AMC) (380 nm excitation and 460 nm emission) in a microplate multimode reader (TECAN, Austria). The maximum percentage of inhibition against enzymes is calculated at […] compound concentration. […] The Ki values were determined according to the Morrison method using three different concentrations of substrates and ten different concentrations of the inhibitor. All experiments were performed in triplicate. GraphPad Prism version 8.0.0 (San Diego, CA, USA) was used to determine all the kinetic parameters.
# [2] = target: EfMetAP1a (Enterococcus faecalis, UniProt Q832M5); experiment: as above; format: biochemical; conditions: Morrison Ki method
# Chain of EfMetAP1a (Q832M5 entry or part of it): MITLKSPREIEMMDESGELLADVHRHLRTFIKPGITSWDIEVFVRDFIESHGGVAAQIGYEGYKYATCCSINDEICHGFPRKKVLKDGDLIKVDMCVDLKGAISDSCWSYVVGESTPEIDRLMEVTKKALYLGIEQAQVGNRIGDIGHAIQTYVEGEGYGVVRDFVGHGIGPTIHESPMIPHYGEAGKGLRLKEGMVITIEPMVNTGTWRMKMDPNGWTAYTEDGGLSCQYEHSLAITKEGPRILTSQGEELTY
# [3] = tested on: E. faecalis; experiment: Growth inhibition screening (broth dilution); format: cell-based, Enterococcus faecalis; conditions: Enterococcus faecalis
# Procedure: (§1) In vitro screening of the compounds (PS1–14) was performed to assess the antibacterial activity against three Gram-positive (Staphylococcus aureus, Enterococcus faecalis and Bacillus subtilis,) and three Gram-negative (Pseudomonas aeruginosa, Klebsiella pneumonia and Escherichia coli) bacterial strains using the standard NCCLS broth dilution assay. The study’s standard drugs were ciprofloxacin (CIP) and ampicillin (AMP). Compounds were dissolved in a polar solvent (DMSO) and distributed into a 96-well plate in 200 µL of nutrient broth medium, with a final concentration of the compounds […] in each well. The bacterial cells (about 2.5 × 10^5 cells/mL) were inoculated into each well and incubated at 37 °C overnight. After incubation, the growth was measured by turbidity of the culture at 590 nm by spectrophotometer.
# [4] = tested on: B. subtilis; experiment: Growth inhibition screening (broth dilution); format: cell-based, Bacillus subtilis; conditions: Bacillus subtilis
# Procedure: as §1
# [5] = tested on: S. aureus; experiment: Growth inhibition screening (broth dilution); format: cell-based, Staphylococcus aureus; conditions: Staphylococcus aureus
# Procedure: as §1
# [6] = tested on: P. aeruginosa; experiment: Growth inhibition screening (broth dilution); format: cell-based, Pseudomonas aeruginosa; conditions: Pseudomonas aeruginosa
# Procedure: as §1
# [7] = tested on: E. coli; experiment: Growth inhibition screening (broth dilution); format: cell-based, Escherichia coli; conditions: Escherichia coli
# Procedure: as §1
# [8] = tested on: K. pneumoniae; experiment: Growth inhibition screening (broth dilution); format: cell-based, Klebsiella pneumonia; conditions: Klebsiella pneumoniae
# Procedure: as §1
# [9] = target: SpMetAP1a (Streptococcus pneumoniae, UniProt Q8DPV1); experiment: MetAP enzyme inhibition, Morrison Ki (Met-AMC fluorescence); format: biochemical; conditions: Morrison Ki method
# Chain of SpMetAP1a (Q8DPV1 entry or part of it): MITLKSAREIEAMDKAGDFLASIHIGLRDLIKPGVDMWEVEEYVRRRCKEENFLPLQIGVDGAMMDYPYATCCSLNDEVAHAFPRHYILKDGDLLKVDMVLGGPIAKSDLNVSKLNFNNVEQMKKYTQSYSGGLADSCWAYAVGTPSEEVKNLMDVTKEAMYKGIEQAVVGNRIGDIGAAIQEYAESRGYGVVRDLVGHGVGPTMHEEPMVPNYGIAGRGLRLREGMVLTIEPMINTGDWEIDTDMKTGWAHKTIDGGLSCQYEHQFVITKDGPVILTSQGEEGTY
# [10] = tested on: E. faecalis; experiment: Minimum inhibitory concentration (broth dilution); format: cell-based; conditions: Enterococcus faecalis, alone
# [11] = tested on: S. aureus; experiment: Minimum inhibitory concentration (broth dilution); format: cell-based; conditions: Staphylococcus aureus, alone
# [12] = tested on: P. aeruginosa; experiment: Minimum inhibitory concentration (broth dilution); format: cell-based; conditions: Pseudomonas aeruginosa, alone
# [13] = tested on: E. coli; experiment: Minimum inhibitory concentration (broth dilution); format: cell-based, Escherichia coli; conditions: Escherichia coli, alone, read-out: MIC
# [14] = tested on: K. pneumoniae; experiment: Minimum inhibitory concentration (broth dilution); format: cell-based, Klebsiella pneumonia; conditions: Klebsiella pneumoniae, alone, read-out: MIC
# [15] = tested on: E. faecalis; experiment: Combination study with AMP or CIP
# [16] = tested on: B. subtilis; experiment: Combination study with AMP or CIP
# [17] = tested on: S. aureus; experiment: Combination study with AMP or CIP
# [18] = tested on: P. aeruginosa; experiment: Combination study with AMP or CIP
# [19] = tested on: E. coli; experiment: Combination study with AMP or CIP
# [20] = tested on: K. pneumoniae; experiment: Combination study with AMP or CIP
# T1 sequence (P9WK19 whole entry): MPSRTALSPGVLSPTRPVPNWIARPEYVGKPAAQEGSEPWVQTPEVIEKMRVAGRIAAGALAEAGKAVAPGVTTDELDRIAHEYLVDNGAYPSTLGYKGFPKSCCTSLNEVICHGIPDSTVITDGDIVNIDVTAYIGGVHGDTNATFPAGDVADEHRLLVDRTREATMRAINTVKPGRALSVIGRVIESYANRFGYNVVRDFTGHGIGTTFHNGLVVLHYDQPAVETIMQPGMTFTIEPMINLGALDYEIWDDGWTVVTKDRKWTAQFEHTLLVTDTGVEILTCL
Compound,Ki [1] [µM],inhibition at 250 µg/mL [3] [%],inhibition at 250 µg/mL [4] [%],inhibition at 250 µg/mL [5] [%],inhibition at 250 µg/mL [6] [%],inhibition at 250 µg/mL [7] [%],inhibition at 250 µg/mL [8] [%],melting point [°C],further results
"COc1ccc2c(c1)NC(=O)/C2=N/NC(=O)c1cc(-c2cccc(Br)c2)n[nH]1 [PS12, (E)-3-(3-Bromophenyl)-N′-(6-Methoxy-2-Oxoindolin-3-Ylidene)-1H-Pyrazole-5-Carbohydrazide]",0.61 ± 0.03,65,85,100,23,74,6,228 to 230,Ki [2]: 3.25 ± 0.14 µM
"O=C1Nc2ccccc2/C1=N\NC(=O)c1cc(-c2cccc(Br)c2)n[nH]1 [PS1, (E)-3-(3-Bromophenyl)-N′-(2-Oxoindolin-3-YLIDENE)-1H-Pyrazole-5-Carbohydrazide]",2.3 ± 0.27,12,76,73,4,40,74,218 to 221,Ki [2]: 2.65 ± 0.34 µM; Ki [9]: 4.48 ± 0.12 µM
"O=C(O)c1cn(C2CC2)c2cc(N3CCNCC3)c(F)cc2c1=O [CIP, Ciprofloxacin, reference compound]",,100,100,100,100,100,100,,MIC [10]: 1 µg/mL; MIC [11]: 0.5 µg/mL; MIC [12]: 4 µg/mL; MIC [13]: 8 µg/mL; MIC [14]: 8 µg/mL; MIC in Combination ([15]; combination PS6 + CIP): 0.0625 µg/mL; MIC in Combination ([15]; combination PS9 + CIP): 1 µg/mL; MIC in Combination ([16]; combination PS6 + CIP): 0.0078 µg/mL; MIC in Combination ([16]; combination PS9 + CIP): 0.5 µg/mL; MIC in Combination ([17]; combination PS6 + CIP): 0.25 µg/mL; MIC in Combination ([17]; combination PS9 + CIP): 0.0156 µg/mL; MIC in Combination ([18]; combination PS6 + CIP): 0.5 µg/mL; MIC in Combination ([18]; combination PS9 + CIP): 0.125 µg/mL; MIC in Combination ([19]; combination PS6 + CIP): 0.5 µg/mL; MIC in Combination ([19]; combination PS9 + CIP): 0.03125 µg/mL; MIC in Combination ([20]; combination PS6 + CIP): 4 µg/mL; MIC in Combination ([20]; combination PS9 + CIP): 0.0078 µg/mL
"Cc1cc(C)c2c(c1)/C(=N\NC(=O)c1cc(-c3cccc(Br)c3)n[nH]1)C(=O)N2 [PS4, (E)-3-(3-Bromophenyl)-N′-(5,7-Dimethyl-2-Oxoindolin-3-Ylidene)-1H-Pyrazole-5-Carbohydrazide]",,47,44,81,90,80,97,257 to 260,
"O=C1Nc2cc([N+](=O)[O-])ccc2/C1=N\NC(=O)c1cc(-c2cccc(Br)c2)n[nH]1 [PS14, (E)-3-(3-Bromophenyl)-N′-(6-Nitro-2-Oxoindolin-3-Ylidene)-1H-Pyrazole-5-Carbohydrazide]",1.27,9,86,33,3,34,17,225 to 228,Ki [9]: 0.5 ± 0.03 µM
"O=C1Nc2c(Cl)cccc2/C1=N\NC(=O)c1cc(-c2cccc(Br)c2)n[nH]1 [PS13, (E)-3-(3-Bromophenyl)-N′-(7-Chloro-2-Oxoindolin-3-Ylidene)-1H-Pyrazole-5-Carbohydrazide]",,36,33,92,95,20,74,205 to 208,
"O=C1Nc2c(cccc2[N+](=O)[O-])/C1=N\NC(=O)c1cc(-c2cccc(Br)c2)n[nH]1 [PS10, (E)-3-(3-Bromophenyl)-N′-(7-Nitro-2-Oxoindolin-3-Ylidene)-1H-Pyrazole-5-Carbohydrazide]",,85,56,82,100,88,52,215 to 218,
"O=C1Nc2ccc(Cl)cc2/C1=N\NC(=O)c1cc(-c2cccc(Br)c2)n[nH]1 [PS8, (E)-3-(3-Bromophenyl)-N′-(5-Chloro-2-Oxoindolin-3-Ylidene)-1H-Pyrazole-5-Carbohydrazide]",,13,93,3,100,84,52,217 to 220,
"O=C1Nc2cc(F)ccc2/C1=N\NC(=O)c1cc(-c2cccc(Br)c2)n[nH]1 [PS7, (E)-3-(3-Bromophenyl)-N′-(6-Fluoro-2-Oxoindolin-3-Ylidene)-1H-Pyrazole-5-Carbohydrazide]",,99,100,10,65,3,49,228 to 230,
"Cc1ccc2c(c1)/C(=N\NC(=O)c1cc(-c3cccc(Br)c3)n[nH]1)C(=O)N2 [PS2, (E)-3-(3-Bromophenyl)-N′-(5-Methyl-2-Oxoindolin-3-Ylidene)-1H-Pyrazole-5-Carbohydrazide]",4.37 ± 0.14,10,80,66,87,86,90,209 to 213,Ki [9]: 2.98 ± 0.18 µM
"O=C1Nc2ccc(Br)cc2/C1=N\NC(=O)c1cc(-c2cccc(Br)c2)n[nH]1 [PS5, (E)-N′-(5-Bromo-2-Oxoindolin-3-Ylidene)-3-(3-Bromophenyl)-1H-Pyrazole-5-Carbohydrazide]",3.14 ± 0.41,86,34,100,100,9,100,230 to 233,
